Where “and” joins values, the source holds several entries; their conditions need not be identical. Identical values can stand only once. After the bases stand the sugars from the 5' end (letter, count) and the backbone: PS all phosphorothioate, else s phosphorothioate and o phosphodiester by linkage. Methylation of C is not given here. e = 2'-O-(2-methoxyethyl) (MOE); k = constrained ethyl (cEt); d = 2'-deoxy (DNA)
Columns and labels:
MALAT1 = conditions: ASO, A431, 0.005 µM
IRF4 = conditions: ASO

| Sequence | target mRNA inhibition (MALAT1) | target mRNA inhibition (IRF4; SK-MEL-28, 4 µM) | also measured |
| --- | --- | --- | --- |
| CGAACTGCTGCTTGCT (sugars k3 d10 k3, PS) | 40% | – | – |
| CTTTACAGAAGTCTCG (sugars k3 d10 k3, PS) | 22% | – | – |
| GGTTAAGCACTTTTAA (sugars k3 d10 k3, PS) | 38% | – | – |
| GCAAAATGTACTCAGC (sugars k3 d10 k3, PS) | 23% | – | – |
| TGACACTTCTCTTGAC (sugars k3 d10 k3, PS) | 30% | – | – |
| ACCACAACAATTTAGA (sugars k3 d10 k3, PS) | -10% | – | – |
| CAGAAGCCCCTGCGCT (sugars k3 d10 k3, PS) | 3% | – | – |
| ATTTTGTCCACTGGTG (sugars k3 d10 k3, PS) | 50% | – | – |
| ATCAAACACTGGTTCC (sugars k3 d10 k3, PS) | 48% | – | – |
| AACCGTAACAGGCCAC (sugars k3 d10 k3, PS) | 50% | – | – |
| CTGTCTGAGGCAAACG (sugars k3 d10 k3, PS) | 37% | – | – |
| TGTCAATTTATAGACC (sugars k3 d10 k3, PS) | 6% | – | – |
| CGGCCCGCACGGAAAT (sugars k3 d10 k3, PS) | 24% | – | – |
| AAACTTGCTTACACAC (sugars k3 d10 k3, PS) | 25% | – | – |
| GACCTGAAGTCAAGAC (sugars k3 d10 k3, PS) | -1% | – | – |
| CCCTATATAAGGTCAA (sugars k3 d10 k3, PS) | 13% | – | – |
| ATTTTTGAAGCATACC (sugars k3 d10 k3, PS) | 41% and 57% | – | – |
| ACCCAGCATTACAGTT (sugars k3 d10 k3, PS) | 8% | – | – |
| TGATAGTTCAGGGCTT (sugars k3 d10 k3, PS) | 9% | – | – |
| CCAGCCTATAAGGACA (sugars k3 d10 k3, PS) | -1% | – | – |
| TCCTAGCTTCATCAAA (sugars k3 d10 k3, PS) | 7% | – | – |
| TTAATGCTAGTCCTCA (sugars k3 d10 k3, PS) | 39% | – | – |
| TAAACTCACTGCAAGG (sugars k3 d10 k3, PS) | 14% | – | – |
| TACTGCTTGAGGTTTT (sugars kddddddddddkekek, PS) | – | – | target mRNA inhibition (IRF4; MM.1R, 1 µM): 24% |
| TTTATGTTAGCCAATT (sugars kkdddddddddekeke, PS) | – | – | target mRNA inhibition (IRF4; MM.1R, 1 µM): 12% and -13% |
| ACTCCATGAGGTTTTC (sugars k3 d10 k3, PS) | – | 73% | – |
| CCGACACGCGCCGCTC (sugars k3 d10 k3, PS) | – | 30% | – |

| Sequence | target mRNA inhibition (MALAT1) | target mRNA inhibition (IRF4; SK-MEL-28, 4 µM) | also measured |
| --- | --- | --- | --- |
| ATTGCCTGTTAAGTCC (sugars k3 d10 k3, PS) | – | 73% | – |
| GGCACATCAATGTTTT (sugars kddddddddddkekek, PS) | – | – | target mRNA inhibition (IRF4; MM.1R, 1 µM): 28% and 25% |
| TTCTAGTCGCGCAAGT (sugars k3 d10 k3, PS) | – | – | target mRNA inhibition (IRF4; MM.1R, 1 µM): -7% |
| CAGTTGTAAATGAGTC (sugars kkddddddddddkeke, PS) | – | – | target mRNA inhibition (IRF4; MM.1R, 0.074 µM): 19%; target mRNA inhibition (IRF4; MM.1R, 0.222 µM): 35%; target mRNA inhibition (IRF4; MM.1R, 0.666 µM): 49%; target mRNA inhibition (IRF4; MM.1R, 1 µM): 59%; target mRNA inhibition (IRF4; MM.1R, 2 µM): 73% |
| TCAGACAGTGCGCCCC (sugars k3 d10 k3, PS) | – | 26% | – |
| TTTTTCTCACCATGGC (sugars k3 d10 k3, PS) | – | 74% | – |
| GAGAAGCATATTCCAA (sugars k3 d10 k3, PS) | – | 57% | – |
| CAGTGATGTCAGGTTT (sugars kkdddddddddkdkdk, PS) | – | – | target mRNA inhibition (IRF4; MM.1R, 0.074 µM): 5%; target mRNA inhibition (IRF4; MM.1R, 0.222 µM): 23%; target mRNA inhibition (IRF4; MM.1R, 0.666 µM): 40%; target mRNA inhibition (IRF4; MM.1R, 1 µM): 47%; target mRNA inhibition (IRF4; MM.1R, 2 µM): 67% |
| CATTTCATTTAATGTC (sugars k4 d8 k4, PS) | – | 44% | – |
| ACACACATTTGAGAGC (sugars k3 d10 k3, PS) | – | 66% | – |
| TGATGTATACCAACGA (sugars k3 d10 k3, PS) | – | 62% and 87% | – |
| ACTAACAGGGAGACTG (sugars k3 d10 k3, PS) | – | – | target mRNA inhibition (IRF4; MM.1R, 1 µM): -19% |
| CACCTCTTCACTACCT (sugars k3 d10 k3, PS) | – | – | target mRNA inhibition (IRF4; MM.1R, 1 µM): 0% |
| CAAACTCCTCAGGGAA (sugars k3 d10 k3, PS) | – | 23% | – |
| GAAACGAGCCAGTGCA (sugars k3 d10 k3, PS) | – | 52% | – |
| CAGCAGGTTTTGAGAC (sugars k3 d10 k3, PS) | – | 20% | – |
| AGCAAAACGCAGAGCC (sugars k3 d10 k3, PS) | – | 61% | – |
| TGGAGAAACGAGCCAG (sugars k3 d10 k3, PS) | – | 38% | – |
| GCTAGATTCTCCCTGC (sugars k3 d10 k3, PS) | – | – | target mRNA inhibition (IRF4; MM.1R, 1 µM): -13% |
| TGCAAGCCTCATTCAC (sugars k3 d10 k3, PS) | – | 42% | – |
| ACAGAGACGCGGTGAG (sugars k3 d10 k3, PS) | – | – | target mRNA inhibition (IRF4; MM.1R, 1 µM): 14% |
| ACATGGCAGTGGAGCT (sugars k3 d10 k3, PS) | – | 64% | – |
| GGAGAGGCTGAGATAA (sugars k3 d10 k3, PS) | – | 29% | – |
| GGGCAACAGTTCAAGT (sugars k3 d10 k3, PS) | – | 36% | – |
| TATCAAAGATCTCCAC (sugars k3 d10 k3, PS) | – | 25% | – |
| ATCATCCGAAAAGACT (sugars k3 d10 k3, PS) | – | – | target mRNA inhibition (IRF4; MM.1R, 1 µM): 4% |
| CACATGATAAGGCACT (sugars k3 d10 k3, PS) | – | – | target mRNA inhibition (IRF4; MM.1R, 1 µM): 21% |
